# Where two headings read alike, the source gives them in different places. l = locked nucleic acid (LNA); [5mC] = 5-methylcytosine; {Biotin} = biotin label; d = 2'-deoxy (DNA)
# Assays:
# [1] = system: DNA target 3′-d(CACTYTACG); details: data reported earlier; cited from earlier work
# [2] = system: DNA target 3′-d(CACTYTACG); assay: Thermal denaturation of ON1-ON11 towards DNA complements; type: binding; details: 1.5 μM of the two strands
# [3] = system: C. elegans genes relevant for general stress response and metabolism of toxic compounds
# [4] = system: human chromosome 21 alphaRI (680) locus alpha-satellite repeat; assay: FISH with chromosome-21 specific centromere LNA probes; type: binding; details: 40 min. hybridization at RT
# [5] = system: splice variant #1 and #2 transcripts spiked into C. elegans total RNA; assay: Splice variant ratio detection with merged LNA block capture probes (Example 9); type: binding; details: signal ratio KU007/KU008, Cy5, normalized
# [6] = system: human telomere repeat; assay: FISH with human telomere repeat LNA probe; type: binding; details: 5 pmoles probe, 30 min. hybridization at 37° C.
# Protocol: Chromosome preparations were made by standard methods from peripheral lymphocyte cultures of two normal males. Slides were prepared 1-6 days prior to an experiment and treated with RNAse (10 μg/μl) at 37° C. for one hour before hybridization. […] FISH was carried out as described previously (Silahtaroglu et al, 1998) with the following modifications. […] Slides were washed after 30 min. hybridization at 37° C. Post washing steps included a 2×5 min 0.1×SSC at 60° C.; 5 min 2×SSC at 37° C.; 3 min 4×SSC/0.05% Tween20 at 37° C. and 5 min PBS. […] The whole procedure was carried out in the dark. The signals were visualized using a Leica DMRB epifluorescence microscope equipped with a SenSys charge-coupled device camera (Photometrics, Tucson, Ariz.), and IPLAB Spectrum Quips FISH software (Applied Imaging international Ltd., Newcastle, UK).
# [7] = C. elegans, incubation 24 hours
compound,measurement,setting,value
5′-d(GTGATATGC) [ON1],"Tm, Y = A",[1],28 °C
same,"Tm, Y = C",[1],11 °C
same,"Tm, Y = G",[1],12 °C
same,"Tm, Y = T",[1],19 °C
"5′-d[2′-OMe(GTGATATGC)] [ON5, reference compound]","Tm, Y = A","[2]; 10 mM sodium phosphate, 100 mM sodium chloride, 0.1 mM EDTA, pH 7.0",35 °C
same,"Tm, Y = C",[2]; medium salt buffer,14 °C
same,"Tm, Y = G",[2]; medium salt buffer,19 °C
same,"Tm, Y = T",[2]; medium salt buffer,21 °C
Cc1c(OCC(F)(F)F)ccnc1C[S+]([O-])c1nc2ccccc2[nH]1 (centres unmarked) [Lansoprazole],"Log2 transformed fold of change, HSP90 (C47E8.5)",[3]; [7],−1.17
same,"Log2 transformed fold of change, Ubiquitin (M7.1)",[3]; [7],−0.12
same,"Log2 transformed fold of change, CYP37A (F01D5.9)",[3]; in vivo,0.98
"Nc1ncc2ncn([C@@H]3O[C@@]4(CO)CO[C@@H]3[C@@H]4O)c2n1 [compound 23, (1S,3R,4R,7S)-3-(2-aminopurin-9-yl)-7-hydroxy-1-hydroxymethyl-2,5-dioxabicyclo[2.2.1]heptane]",melting point,,227.5 to 229 °C (dec.)
"TgTgTaCcCaGcCaAaGgAgTtGa (TGTGTACCCAGCCAAAGGAGTTGA; sugars from the 5' end ldldldldldldldldldldldld, 5' {Biotin}, backbone and methylation of C not given here) [5′ biotin-labelled 24-mer FISH probe]",FISH signals on chromosomes,[4],prominent signals both on chromosomes 13 and 21
"aCcCaGcCaAaGgAg (ACCCAGCCAAAGGAG; sugars from the 5' end dldldldldldldld, 5' {Biotin}, backbone and methylation of C not given here) [5′ biotin-labelled 15-mer FISH probe]",FISH signals on chromosomes,[4],prominent signals on chromosome 21
"caacactgcccagaggttcaatcGATGTgtgataggatcagtgttcaggg (CAACACTGCCCAGAGGTTCAATCGATGTGTGATAGGATCAGTGTTCAGGG; sugars from the 5' end d23 l5 d22, backbone not given here; further chemistry not fully specified) [gene78.m01INS4_50_block]",Observed ratio (log2) with merged LNA block capture probes,[5],−2.39
"caacactgcccagaggttcaatcGATmCmCgatgatcctaatgaaggcgccc (CAACACTGCCCAGAGGTTCAATCGATCCGATGATCCTAATGAAGGCGCCC; sugars from the 5' end d23 l5 d22, [5mC] at 27, 28, backbone not given here; further chemistry not fully specified) [gene78.m01INS3_50_block]",Observed ratio (log2) with merged LNA block capture probes,[5],2.93
"gaaggcgaaggagactgctAATATcgataaatatgtgaaggaaatgcctg (as printed in the source, key not given here) [gene78.mINS403_50_block]",Observed ratio (log2) with merged LNA block capture probes,[5],−0.86
"gene78.m0103: merged probe corresponding to the exon 01-exon 03 border (DNA CACAACACTGCCCAGAGGTTCAATCGATAAATATGTGAAGGAAATGCCTG; listed as DNA, chemistry not fully specified)",Observed ratio (log2) with merged LNA block capture probes,[5],−0.24
"gtccagtatcgtccatcatAGTATcgataaatatgtgaaggaaatgcctg (as printed in the source, key not given here) [gene78.mINS303_50_block]",Observed ratio (log2) with merged LNA block capture probes,[5],3.11
ttagggttagggttagggttaggg [human telomere repeat specific LNA oligonucleotide probe] (TTAGGGTTAGGGTTAGGGTTAGGG),FISH signals on telomeres,[6],prominent signals on the telomeres

# Source: patent publication US9464106B2, “Oligonucleotides useful for detecting and analyzing nucleic acids of interest” (Exiqon A/S, priority 2002, dated 2016)
